Assays:
[1] = test system: MCF7; experiment: Decrease in estrogen receptor alpha level in human MCF7 cells after 4 hrs by in-cell western assay; assay type: functional, cell-based; settings: MCF7, 4 h
[2] = test system: MCF7; experiment: Cytotoxicity against human MCF7 cells assessed as decrease in cell viability after 5 days by celltiterGlo assay; assay type: functional, cell-based; settings: MCF7, 120 h
[3] = test system: MCF7; experiment: Decrease in estrogen receptor alpha level in human MCF7 cells after 4 hrs by in-cell western assay relative to fulvestrant; assay type: functional; settings: MCF7, 4 h
[4] = AUC in CD-1 mouse at 10 mg/kg, po; assay type: ADME, organism-based; settings: in vivo
[5] = Fraction unbound in CD-1 mouse plasma by equilibrium dialysis; assay type: ADME, cell-free
[6] = test system: Rattus norvegicus; experiment: Decrease in uterine wet weight of CD-IGS rat at 1 mg/kg, po qd followed 15 mins later administration of 0.1 mg/kg, po 17alpha-ethynylestradiol for 3 consecutive days; assay type: functional

| Structure (SMILES) | EC50 [1] [nM] | IC50 [2] [nM] | Emax [3] [%] | AUC [4] [ng·h/mL] | fraction unbound [5] | inhibition (INH) [6] [%] |
| --- | --- | --- | --- | --- | --- | --- |
| O=C(O)/C=C/c1ccc(/C(=C(\c2ccccc2)C2CCCCC2)c2ccc3[nH]ncc3c2)cc1 | 25 | 64 | 86 | – | – | – |
| O=C(O)/C=C/c1ccc(/C(=C(/CCCl)c2ccccc2)c2ccc3[nH]ncc3c2)cc1 | 1.4 | 9 | 90 | – | – | – |
| N#Cc1cc(Cl)cnc1/C(=C(\c1ccc(/C=C/C(=O)O)cc1)c1ccc2[nH]nc(F)c2c1)C1CCC1 | 0.4 | 1.1 | 93 | 250 | – | – |
| CC/C(=C(/c1ccc(/C=C/C(=O)O)cc1)c1ccc2[nH]ncc2c1C#N)c1ccccc1 | 0.5 | 1.5 | 91 | 500 | – | – |
| C[C@]12CC[C@@H]3c4ccc(O)cc4C[C@@H](CCCCCCCCC[S+]([O-])CCCC(F)(F)C(F)(F)F)[C@H]3[C@@H]1CC[C@@H]2O (stereo partly specified) [FULVESTRANT] | 0.4 | 0.6 | 100 | – | – | – |
| CC/C(=C(/c1ccc(/C=C/C(=O)O)cc1)c1ccc2[nH]ncc2c1Cl)c1ccccc1 | 0.8 | 1.6 | 93 | 18000 | – | – |
| COc1ccc(/C(=C(\c2ccc(/C=C/C(=O)O)cc2)c2ccc3[nH]nc(F)c3c2)C2CCC2)c(C#N)c1 | 0.3 | 0.5 | 94 | 2000 | 0.004 | 82 |
| O=C(O)/C=C/c1ccc(/C(=C(\c2ccccc2)C(F)F)c2ccc3[nH]ncc3c2)cc1 | 4.7 | 14 | 91 | – | – | – |
| O=C(O)/C=C/c1ccc(/C(=C(\c2ccncc2Cl)C2CCC2)c2ccc3[nH]nc(F)c3c2)cc1 | 0.3 | 0.8 | 90 | 1800 | 0.012 | 74 |
| O=C(O)/C=C/c1ccc(/C(=C(\c2ncccc2C(F)(F)F)C2CCC2)c2ccc3[nH]nc(F)c3c2)cc1 | 0.3 | 1.1 | 89 | 690 | 0.048 | – |
| CC/C(=C(/c1ccc(/C=C/C(=O)O)cc1)c1ccc2[nH]nc(F)c2c1)c1ccccc1 | 1.1 | 5 | 90 | 14000 | – | – |
| N#Cc1cc(Cl)ccc1/C(=C(\c1ccc(/C=C/C(=O)O)cc1)c1ccc2[nH]nc(F)c2c1)C1CCC1 | 0.3 | 0.7 | 94 | 3700 | 0.007 | 87 |
| O=C(O)/C=C/c1ccc(/C(=C(\c2ncc(F)cc2Cl)C2CCC2)c2ccc3[nH]nc(F)c3c2)cc1 | 0.6 | 1.7 | 89 | – | – | – |
| CC/C(=C(/c1ccc(/C=C/C(=O)O)cc1)c1cc(Cl)c2[nH]ncc2c1)c1ccccc1 | 18 | 56 | 92 | – | – | – |
| CC/C(=C(/c1ccc(/C=C/C(=O)O)cc1)c1cc(F)c2[nH]ncc2c1)c1ccccc1 | 6.4 | 7.5 | 92 | – | – | – |
| CC/C(=C(/c1ccc(/C=C/C(=O)O)cc1)c1ccc2[nH]ncc2c1OC)c1ccccc1 | 19 | 55 | 91 | – | – | – |
| CC/C(=C(/c1ccc(/C=C/C(=O)O)cc1)c1ccc2[nH]ncc2c1)c1ccc(F)cc1Cl [BRILANESTRANT] | – | 2.5 | 90 | – | 0.011 | 79 |
| N#Cc1cnccc1/C(=C(\c1ccc(/C=C/C(=O)O)cc1)c1ccc2[nH]nc(F)c2c1)C1CCC1 | 1.1 | 3.8 | 92 | 70 | 0.1 | 22 |
| CC/C(=C(/c1ccc(/C=C/C(=O)O)cc1)c1ccc2[nH]ncc2n1)c1ccccc1 | 20 | 33 | 88 | – | – | – |
| CS(=O)(=O)c1ccc(/C(=C(\c2ccc(/C=C/C(=O)O)cc2)c2ccc3[nH]nc(F)c3c2)C2CCC2)c(Cl)c1 | 0.9 | 2.3 | 91 | 140 | – | 29 |

| Structure (SMILES) | EC50 [1] [nM] | IC50 [2] [nM] | Emax [3] [%] | AUC [4] [ng·h/mL] | fraction unbound [5] | inhibition (INH) [6] [%] |
| --- | --- | --- | --- | --- | --- | --- |
| Cc1cccnc1/C(=C(\c1ccc(/C=C/C(=O)O)cc1)c1ccc2[nH]nc(F)c2c1)C1CCC1 | 0.8 | 4.2 | 88 | 190 | – | – |
| CC/C(=C(/c1ccc(/C=C/C(=O)O)cc1)c1ccc2[nH]ncc2c1F)c1ccccc1 | 0.9 | 3 | 89 | 8200 | – | – |
| O=C(O)/C=C/c1ccc(/C(=C(\c2ccc(C(F)(F)F)cc2Cl)C2CCC2)c2ccc3[nH]nc(F)c3c2)cc1 | 3 | 8.2 | 94 | – | – | – |
| COCC/C(=C(/c1ccc(/C=C/C(=O)O)cc1)c1ccc2[nH]ncc2c1)c1ccccc1 | 47 | 63 | 92 | – | – | – |
| O=C(O)/C=C/c1ccc(/C(=C(/CCO)c2ccccc2)c2ccc3[nH]ncc3c2)cc1 | > 1000 | > 1000 | – | – | – | – |
| O=C(O)/C=C/c1ccc(/C(=C(\c2ccc(F)cc2Cl)C2CCC2)c2ccc3[nH]nc(F)c3c2)cc1 | 0.6 | 2 | 91 | – | – | – |
| O=C(O)/C=C/c1ccc(/C(=C(\c2ccccc2)C2CCC2)c2ccc3[nH]ncc3c2)cc1 | 0.3 | 1.4 | 89 | – | – | – |
| O=C(O)/C=C/c1ccc(/C(=C(\c2ccccn2)C2CCC2)c2ccc3[nH]nc(F)c3c2)cc1 | 7.6 | 22 | 90 | – | – | – |
| CC(C)/C(=C(/c1ccc(/C=C/C(=O)O)cc1)c1ccc2[nH]ncc2c1)c1ccccc1 | 4.3 | 4 | 91 | – | – | – |
| CC/C(=C(/c1ccc(/C=C/C(=O)O)cc1)c1cc(C)c2[nH]ncc2c1)c1ccccc1 | 19 | 59 | 89 | – | – | – |
| O=C(O)/C=C/c1ccc(/C(=C(\c2ccccc2)C(F)(F)F)c2ccc3[nH]ncc3c2)cc1 | 3.1 | 5.5 | 92 | – | – | – |
| COC/C(=C(/c1ccc(/C=C/C(=O)O)cc1)c1ccc2[nH]ncc2c1)c1ccccc1 | 35 | 88 | 86 | – | – | – |
| CCCC/C(=C(/c1ccc(/C=C/C(=O)O)cc1)c1ccc2[nH]ncc2c1)c1ccccc1 | 11 | 10 | 92 | – | – | – |
| O=C(O)/C=C/c1ccc(/C(=C(\c2ccccc2)C2CC2)c2ccc3[nH]ncc3c2)cc1 | 2.8 | 13 | 89 | – | – | – |
| O=C(O)/C=C/c1ccc(/C(=C(\c2ccccc2)C2CCCC2)c2ccc3[nH]ncc3c2)cc1 | 9.3 | 10 | 90 | – | – | – |
| CCC/C(=C(/c1ccc(/C=C/C(=O)O)cc1)c1ccc2[nH]ncc2c1)c1ccccc1 | 4.6 | 11 | 92 | – | – | – |
| CC/C(=C(/c1ccc(/C=C/C(=O)O)cc1)c1ccc2[nH]ncc2c1)c1ccccc1 | – | 7.2 | 90 | – | – | – |
| C/C(=C(/c1ccc(/C=C/C(=O)O)cc1)c1ccc2[nH]ncc2c1)c1ccccc1 | 26 | 40 | 92 | – | – | – |
| CC/C(=C(/c1ccc(/C=C/C(=O)O)cc1)c1ccc2[nH]ncc2c1C)c1ccccc1 | 13 | 50 | 90 | – | – | – |
| O=C(O)/C=C/c1ccc(/C(=C(/CCF)c2ccccc2)c2ccc3[nH]ncc3c2)cc1 | 1.4 | 2.1 | 91 | – | – | – |
